From patent publication US10174288B2, “Induced pluripotent stem cell model for cardiofaciocutaneous syndrome and uses thereof” (Korea Advanced Institute of Science and Technology, priority 2013, dated 2019)

Tests used:
Assay type in all cases: cell-based, human
[1] = test system: CFC-embryonic body; assay: Embryonic body shape under phase contrast microscope; conditions: inhibitor present during CFC-embryonic body differentiation (LDN193189 100 nM, 4 days); compared with untreated CFC-embryonic body; FIG. 8
Protocol: The CFC-iPS fragments were distributed in the ultra-low attachment dish, followed by re-suspension in 5 ml of the embryonic body differentiation medium, which was DMED/F12 supplemented with 10% serum replacement (SR). After 4 days of suspension culture, the differentiation of a CFC-iPS-derived embryonic body (CFC-embryonic body) was induced. On day 2 and day 4 from the inducement, the CFC-embryonic body was obtained and the cell morphology was observed under phase contrast microscope. WT-iPS was cultured as the normal control by the same manner as described above, so that the differentiation of a WT-iPS-derived embryonic body (WT-embryonic body) was induced. […] 4 days after the inducement started, the CFC-embryonic body was obtained and observed under phase contrast microscope to investigate the embryonic body shape. As for the normal control, WT-iPS was cultured by the same manner as described above to induce the differentiation of a WT-iPS derived embryonic body (WT-embryonic body).

[2] = test system: p-SMAD1; assay: Western blotting of p-SMAD1 in CFC-embryonic body differentiated with inhibitor; conditions: 5 μM U0126, 100 nM LDN193189 during embryonic body differentiation; compared with untreated CFC-embryonic body; FIG. 7
Protocol: (§1) Particularly, the colony of CFC-iPS induced by the same manner as described in Example <2-1> was cut into 4 pieces by using […] tissue chopper. The CFC-iPS fragments were distributed in the ultra-low attachment dish, followed by re-suspension in 5 ml of the embryonic body differentiation medium, which was DMED/F12 supplemented with 10% serum replacement (SR). After 4 days of suspension culture, the differentiation of a CFC-iPS-derived embryonic body (CFC-embryonic body) was induced. On day 2 and day 4 from the inducement, the CFC-embryonic body was obtained and the cell morphology was observed under phase contrast microscope. WT-iPS was cultured as the normal control by the same manner as described above, so that the differentiation of a WT-iPS-derived embryonic body (WT-embryonic body) was induced. […] The concentration of the protein was measured by brad-ford assay. […] The expression levels of SMAD1, p-SMAD1, ERK1, p-ERK1, ERK2, and p-ERK2 were quantified by using Image J, the program for the measurement of the pixel intensity, by which the band intensity turned into numerical value. The relative values of p-SMAD1/SMAD1, p-ERK1/ERK1, and p-ERK2/ERK2 were calculated and then the phosphorylation levels of SMAD1, ERK1, and ERK2 were compared with those of the normal control. […]

[3] = test system: p-ERK; assay: Western blotting of p-ERK in CFC-embryonic body differentiated with inhibitor; conditions: 5 μM U0126, 100 nM LDN193189 during embryonic body differentiation; compared with untreated CFC-embryonic body; FIG. 7
Protocol: as §1

## N#CC(=C(N)Sc1ccccc1N)C(C#N)=C(N)Sc1ccccc1N [U0126, 1,4-diamino-2,3-dicyano-1,4-bis(2-aminophenylthio)butadiene]
[1]
  embryonic body shape: normal unbroken embryonic body shape
[2]
  level of p-SMAD1 in CFC-embryonic body: reduced
[3]
  level of p-ERK in CFC-embryonic body: down regulation
